Data from patent publication US20090239884A1, “Methods of Treating Inflammation” (priority 2006, published 2009).

Tests used:
EAE in C57BL/6 mice = assay: experimental autoimmune encephalomyelitis (EAE), clinical score; assay type: in vivo, mouse
Procedure: Induction of active EAE and clinical evaluation. Active EAE is induced in 8-12 weeks old mice by immunization with MOG p35-55 in complete Freund's adjuvant. 200 μg of MOG p35-55 peptide and 800 μg of killed mycobacterium tuberculosis are emulsified in CFA and injected subcutaneously by means of four injections over the flanks. In addition, 200 ng of pertussis toxin dissolved in 200 μl PBS is injected i.p. at the day of immunization and again the day after. Mice are monitored daily for clinical signs of EAE, and scored according to the following criteria: 0, no signs of disease; 0.5, partial tail weakness; 1, limp tail; 1.5, limp tail and slight slowing of righting; 2, partial hind limb weakness and/or marked slowing of righting; 2.5, dragging of hind limb(s) without complete paralysis; 3, complete paralysis of at least one hind limb; 4, severe forelimb weakness; 5, moribund or dead. Daily clinical scores are calculated and presented as the average (mean) and standard error of the mean (SEM) of all individual disease scores in each group. Statistical comparison of disease severity by clinical score is accomplished by calculating the mean clinical score for each mouse from day of disease onset to day 60 and performing a non-parametric Wilcoxon analysis.
[…] 8. DP is the only inhibitor known to block PDE 8 in addition to other PDEs. […]

bEnd.3 endothelial cells = assay: qRT-PCR gene expression in TNF-α activated bEnd.3 endothelial cells; assay type: cell-based, mouse; settings: DP 100 μM
Procedure: Quantitative real-time RT-PCR analysis. 10 ng cDNA, or 2 μl cDNA for LCM studies, was amplified by qRT-PCR in a 25 μl reaction using SYBR Green PCR Master Mix (Applied Biosystems, Foster City, Calif.). Primers were designed using Primer Express software v3.0 and primer efficiency verified by slope analysis to be 100%±2.5%. qRT-PCR was performed using an ABI 7500 fast system and data analyzed using the Δ^ct method (SDS software v3.0). Amplicon sizes were approximately 100 bp.
Cell treatment. Confluent bEnd.3 monolayers were incubated with 200 ng/ml TNF-α (Peprotech, Rocky Hill, N.J.) at 37° c. for 2 hours. […] Christoff Zitt and Armin Hatzelmann (Altana Pharma, Konstanz, Germany). Con A-activated splenocytes or CD4^+CD25^− T cells activated with plate-bound anti-CD3 mAb were treated with the same reagents for 20, 45, or 90 minutes.
In FIG. 23A, bEnd.3 endothelial cells were activated for 2 hours with TNF-α (200 ng/ml) and (A) DP (100 μM) or vehicle (0.1% DMSO) for the final 45 minutes. PDE gene expression was then analyzed by qRT-PCR and the data presented as the mean+SEM of 3 independent experiments assayed in triplicate (*p<0.05, **p<0.001; unpaired t-test).
The data are shown as a mean±SEM percentage of vehicle control and represent 3 independent experiments assayed in triplicate (*p<0.05, * *p<0.001; unpaired t-test).

PDE8A [1] = settings: expressed forms of PDE8A; read-out: reported IC50s, PDE8A; cited from earlier work
PDE8 = settings: read-out: Potency (IC50) PDE8; cited from earlier work
[2] = test system: peripheral blood mononuclear cells; settings: cited from earlier work
PDE8A [3] = test system: T1, PDE8A; settings: expressed forms of full length cDNAs for PDE8; cited from earlier work
T1 construct: other: expressed forms of full length cDNAs for PDE8

[4] = 45 minutes, dibutryl cAMP 500 μM, 8-bromo-cAMP 500 μM

| SMILES | development of clinical signs of EAE (EAE in C57BL/6 mice; 2 mg DP per mouse per day, day 0 until day 23) | clinical severity of EAE compared with vehicle (EAE in C57BL/6 mice; treatment after onset (mean score grade 1), 2×1 mg/mouse/day i.p.) | reduction of ICAM-1 mRNA expression (bEnd.3 endothelial cells; 45 minutes, dibutryl cAMP 500 μM) [%] | increase of claudin-5 gene expression (bEnd.3 endothelial cells; [4]) [%] | reduction of CXCL12 gene expression (bEnd.3 endothelial cells; [4]) [%] | reduction of VCAM-1 gene expression (bEnd.3 endothelial cells; [4]) [%] | PDE4B expression in bEnd.3 cells (bEnd.3 endothelial cells; final 45 minutes of TNF-α) | expression of other PDE genes, including PDE8A, in bEnd.3 cells (bEnd.3 endothelial cells; final 45 minutes of TNF-α) | IC50 (PDE8A [1]) [µM] | IC50 (PDE8) [µM] | lipopolysaccharide-stimulated release of TNF-α [2] | inhibition of expressed forms of PDE8 (PDE8A [3]) |
| --- | --- | --- | --- | --- | --- | --- | --- | --- | --- | --- | --- | --- |
| OCCN(CCO)c1nc(N2CCCCC2)c2nc(N(CCO)CCO)nc(N3CCCCC3)c2n1 [Dipyridamole, 2,2′,2″,2′″-(4,8-di(piperidin-1-yl)pyrimido[5,4-d]pyrimidine-2,6-diyl)bis(azanetriyl)tetraethanol] | profoundly suppressed | significantly decreased | 65 | 111 | 69 | 60 | compensatory increase | not significantly altered | 4 to 9 | 4 to 9 | inhibit | – |
| CC(C)Cn1c(=O)n(C)c(=O)c2[nH]cnc21 [IBMX, 3-isobutyl-1-methylxanthine] | – | – | – | – | – | – | – | – | – | – | – | resistant |
